Test results published in article PMC6706711 (Iranian Journal of Pharmaceutical Research : IJPR, 2019).
Read-outs that look alike come from different tables or passages of the source.

Legend:
MRSA = tested on: MRSA; design: method as in 2 sources, one per row (each row's own in cited_ref): ref Giachetto et al. ([32]) ||| ref Frymoyer et al. ([33]); details: vancomycin 39.92mg·kg-1·d-1; MRSA strains with MIC 1 mg·L-1; ref Giachetto et al. ([32]); cited from earlier work
[1] = 1,000 bootstrap-resampled data sets
[2] = Individual pharmacokinetic parameters by renal function subgroup, post hoc empirical Bayesian approach; details: Total, N=155, mean ± SD
Procedure: After fixing the PK parameters and variation in the final model, the PK parameters for individuals in three groups of different renal function were obtained by using post hoc empirical Bayesian approach. The mean values and standard deviation of the parameters in different groups were calculated.

[3] = cited from earlier work
Source text: In this study, the data of 155 children (aged from 1 month to 16 years) infected with MRS were used to establish a PPK model suitable for Chinese children. And then the PK parameters were obtained by Bayesian method. […] But the value of CL is faster than that reported by Marques-Minana et al.([23]) (0.066 L· ...

[4] = Japanese pediatric patients, ref Yasuhara et al.([17])
[5] = pediatric patients, ref Wrishko et al.(16)

Structure (SMILES): CN[C@H](CC(C)C)C(=O)N[C@H]1C(=O)N[C@@H](CC(N)=O)C(=O)N[C@H]2C(=O)N[C@H]3C(=O)N[C@H](C(=O)N[C@H](C(=O)O)c4cc(O)cc(O)c4-c4cc3ccc4O)[C@H](O)c3ccc(c(Cl)c3)Oc3cc2cc(c3O[C@@H]2O[C@H](CO)[C@@H](O)[C@H](O)[C@H]2O[C@H]2C[C@](C)(N)[C@H](O)[C@H](C)O2)Oc2ccc(cc2Cl)[C@H]1O [vancomycin, Vancomycin]
- probability of AUC0-24h/MIC ≥ 400 (MRSA): 50%
- Exponent for Weight as covariate for CL, bootstrap median [1]: 0.852
- Exponent for Weight as covariate for Vd, bootstrap median [1]: 1.018
- Exponent for lnGFR as covariate for CL, bootstrap median [1]: 2.378
- θVd (typical value for Weight=9 kg), bootstrap median [1]: 5.39 L
- CL [2]: 2.22 ± 1.1 mL/min/kg
- Vd [2]: 0.65 ± 0.30 L/kg
- ke [2]: 0.218 ± 0.091 h⁻¹
- CL [3, 4]: 1.98 mL/min/kg
- Vd [3, 4]: 0.522 L/kg
- CL ([3]; neonates, ref Marques-Minana et al.([23])): 1.1 mL/min/kg
- CL [3, 5]: 2 mL/min/kg
- Vd [3, 5]: 0.57 L/kg
